Data: patent US9737517B2, “Pharmaceutical use of hexahydro-dibenzo[a,g]quinolizine compounds” (SHANGHAI INSTITUTE OF MATERIA MEDICA, CHINESE ACADEMY OF …, priority 2013, dated 2017)

How the values were obtained:
α1D-AR = biological target: T1, α1D-AR (Homo sapiens, UniProt P25100); test: Calcium mobilization (Fluo-4) antagonism of phenylephrine in HEK293 cells expressing α1D-AR/Gα16; assay type: cell-based; conditions: phenylephrine 30 nM
T1 construct: expressed in transfected cells; host or cells: HEK293
T1 sequence (P25100 1-572): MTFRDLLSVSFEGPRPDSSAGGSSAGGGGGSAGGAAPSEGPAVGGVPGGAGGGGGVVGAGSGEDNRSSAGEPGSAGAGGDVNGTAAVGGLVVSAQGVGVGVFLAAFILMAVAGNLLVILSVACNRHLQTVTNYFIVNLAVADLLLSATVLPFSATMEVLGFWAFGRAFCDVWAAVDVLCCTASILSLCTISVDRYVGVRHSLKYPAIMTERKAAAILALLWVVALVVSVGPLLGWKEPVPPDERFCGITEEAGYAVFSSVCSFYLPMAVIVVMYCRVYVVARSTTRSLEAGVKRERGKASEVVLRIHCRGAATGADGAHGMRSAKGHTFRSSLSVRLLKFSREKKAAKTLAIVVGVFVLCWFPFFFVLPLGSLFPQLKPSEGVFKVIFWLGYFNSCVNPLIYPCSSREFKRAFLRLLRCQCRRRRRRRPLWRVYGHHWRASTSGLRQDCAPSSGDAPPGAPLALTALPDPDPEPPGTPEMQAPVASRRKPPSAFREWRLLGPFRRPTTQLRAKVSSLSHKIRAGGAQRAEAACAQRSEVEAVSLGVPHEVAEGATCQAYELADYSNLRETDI
Experimental: (§1) HEK293 cells stably expressing α1A-AR/Gα16, α1B-AR/Gα16, α1D-AR/Gα16 were seeded in a 96-well plate, and cultured for 24 hours. Then the medium was removed and 40 μL Hank's balanced salt solution (HBSS: containing 5.4 mM KCl, 0.3 mM Na2HPO4, 0.4 mM KH2PO4, 4.2 mM NaHCO3, 1.3 mM CaCl2, 0.5 mM MgCl2, 0.6 mM MgSO4, 137 mM NaCl, 5.6 mM D-glucose, and 250 μM sulfinpyrazone, pH 7.4) containing 2 μM Fluo-4 AM was added into each well, and incubated at 37° C. for 45 min. Dye was removed and 50 μL of HBSS containing either test compound or 1% DMSO (negative control) was added. After incubation at room temperature for 10 min, Flex Station 3 microplate reader was used to read the value. At specified time points, 25 μL of agonist (phenylephrine, final concentration 30 nM) was dispensed into the well automatically using the reader and fluorescence intensity change of dye caused by intracellular calcium concentration change was detected at an excitation wavelength of 485 nm and an emission wavelength of 525 nm.
(§2) After incubation with different drugs, the reaction rate of cells to 1-AR agonist phenylephrine was calculated as follows: Reaction rate %=(D−B)/(S−B)*100%;
(§3) The reaction rate of the same drug at different doses was tested using GraphPad Prism software by non-linear regression analysis, and the dose-response curve was obtained and IC50 values was measured. Data were obtained from three separate experiments, and each experiment included three duplicate wells.

α1B-AR = biological target: T2, α1B-AR (Homo sapiens, UniProt P35368); test: Calcium mobilization (Fluo-4) antagonism of phenylephrine in HEK293 cells expressing α1B-AR/Gα16; assay type: cell-based; conditions: phenylephrine 30 nM
T2 construct: expressed in transfected cells; host or cells: HEK293
T2 sequence (P35368 1-520): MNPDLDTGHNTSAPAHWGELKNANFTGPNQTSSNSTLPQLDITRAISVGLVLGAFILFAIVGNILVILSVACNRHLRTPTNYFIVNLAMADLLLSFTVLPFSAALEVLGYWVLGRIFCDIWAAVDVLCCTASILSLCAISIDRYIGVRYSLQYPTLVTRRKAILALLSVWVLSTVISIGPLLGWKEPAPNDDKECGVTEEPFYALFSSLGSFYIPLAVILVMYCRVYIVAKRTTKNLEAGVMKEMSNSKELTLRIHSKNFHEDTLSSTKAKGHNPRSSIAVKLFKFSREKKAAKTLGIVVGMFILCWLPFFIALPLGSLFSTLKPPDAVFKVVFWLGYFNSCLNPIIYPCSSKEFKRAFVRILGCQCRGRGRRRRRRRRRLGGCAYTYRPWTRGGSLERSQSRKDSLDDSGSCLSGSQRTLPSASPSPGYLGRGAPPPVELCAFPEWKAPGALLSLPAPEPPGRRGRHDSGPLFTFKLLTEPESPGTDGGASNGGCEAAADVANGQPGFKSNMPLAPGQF
Experimental: as §1, §2, §3

SD rats = test: Phenylephrine-induced intraurethral pressure (IUP) and arterial blood pressure (MBP) elevation in anesthetized rats; assay type: in vivo; conditions: anesthetized male SD rats; for inhibition of phenylephrine-induced intraurethral pressure (IUP) elevation / inhibition of phenylephrine-induced peripheral arterial blood pressure (MBP) elevation: intraduodenal administration
Text: Male SD rats (200-450 g) were anesthetized with an i.p. administration of urethane (1.25 g/kg). The urinary bladder, prostate, and urethra were exposed through an abdominal midline and symphysis pubica incision. A catheter was placed into the prostatic urethra through the bladder dome and secured at bladder neck (vesico-urethral junction) with a silk suture. The distal urethra under pubica was closed. The other side of the catheter was connected to a pressure transducer to measure the intraurethral pressure (IUP). After separating the duodenum and cutting open at about 2 cm from the stomach pylorus, intubating and performing purse-string suture, the test sample was supplied. Then, the median carotid incision was performed, carotid artery was separated, and the arterial blood pressure was measured by pressure transducer connected to artery cannula. Be careful not to hurt the nerves and blood vessels throughout the procedure. After surgery, a small amount (0.1˜0.2 mL) of saline was injected to balance the intraurethral pressure at around 10 cm of water. Then an intravenous injection at a concentration of 30 μg/mL of […] 1 mL/kg was performed before administration and 5 min, 30 min, 1 h, 1.5 h, 2 h, 3 h after administration to induce intraurethral pressure elevation. (If the effect was stable or weakened, then the experiment was ended.) The changes of intraurethral pressure and blood pressure induced by phenylephrine in rats were observed and recorded at different time points before and after administration.

BPH Rat model = test: Pharmacodynamic experiment in BPH rat model (testosterone propionate), urination after water load; assay type: in vivo, SD rats; conditions: BPH model rats; for frequency of urination, single urine output: relation to dose: 3 doses, water load 30 mL/kg
Experimental: Establishing of BPH Rat model: 6-week-old male SD rats (n=49) (body weight about 200 g), in which 37 rats were BPH model group and daily injected testosterone propionate subcutaneously, and the other 12 rats were Sham group and injected olive oil, for 4 weeks. After 4 weeks, 49 rats received gavage in a dosage of 30 mL/kg of water, and urination for each rat was observed and recorded (recording each urine output and frequency of urination within two hours).
According to the above verification results, rats having abnormal urination were firstly excluded. Then, the normal BPH model rats were divided into 2 groups, 12 rats every group, and 12 rats of Sham group were singled out as control group. Grouping principles were as follows: there were significant differences of body weight, frequency of urination within two hours, single urine output and the total amount of urination between the two groups of BPH model and Sham group, and there were no significant differences between the two groups of BPH model.
Efficacy verification experiment. The experiment had seven groups: Sham group, silodosin group (BPH-1,3-group dose) and DC037009 group (BPH-2,3-group dose). Rats received gavage in a dosage of 5 mL/kg and each dose of the compound dissolved with CMCNa. After 20 min, the rats received gavage in a dosage of 30 mL/kg water. The study time interval of different doses of the same compound was over 24 hours.

[1] = under certain total urine output

SMILES | IC50 (α1D-AR) | IC50 (α1B-AR) | selectivity to urethra (rank order) (SD rats; IUP versus MBP) | onset dose compared with silodosin (SD rats) | rank order of inhibition of phenylephrine-induced blood pressure elevation (SD rats) | rank order of inhibition of phenylephrine-induced intraurethral pressure elevation (SD rats) | inhibition of phenylephrine-induced intraurethral pressure (IUP) elevation (SD rats) | inhibition of phenylephrine-induced peripheral arterial blood pressure (MBP) elevation (SD rats) | efficacy compared with positive drug (BPH Rat model; gavage) | onset dose (BPH Rat model; gavage) | frequency of urination, single urine output: relation to dose (BPH Rat model; gavage) | frequency of urination (BPH Rat model; [1]) | single urine output (BPH Rat model; [1])
COc1cc2c(cc1OCc1ccccc1)C[C@H]1c3cc4c(cc3CCN1C2)OCO4 [DC037016] | 191 nM | 4250 nM |  |  |  |  |  |  |  |  |  |  | 
COc1cc2c(cc1OC)CN1CCc3cc4c(cc3[C@@H]1C2)OCO4 [DC037009, S-(−)-2,3-methylenedioxy-10,11-dimethoxy-5,8,13,13a-tetrahydro-6H-dibenzo[a,g]quinolizine] | 260 nM | 5210 nM | DC037009>Silodosin | significantly lower than that of positive drug silodosin | Silodosin>DC037009 | DC037009>Silodosin | dose-dependently inhibit | dose-dependently inhibit | comparable to the positive drug | 1 mg/kg | dose-dependent relationship | reduce frequency of urination | significantly increase
C[C@H](Cc1cc2c(c(C(N)=O)c1)N(CCCO)CC2)NCCOc1ccccc1OCC(F)(F)F [Silodosin, reference compound] |  |  |  |  |  |  | dose-dependently inhibit | dose-dependently inhibit |  |  | dose-dependent relationship |  | 
